The values that follow come from PubChem BioAssay AID602210 (Sanford-Burnham Center for Chemical Genomics, 2012).

SMILES strings stand for the structures. Active and inactive are the calls of the source. How the calls were made is not given here.

A short description of the experiment: H9c2 cardiomyoblast viability modulators under 2-DG – cell-based, ATPlite luminescence, rat, set 2, myocardial damage modulator project, dose response (AID 602210). The conditions noted are these: H9c2 rat cardiomyoblasts, 2-deoxyglucose-induced death, 2 h. Background: ATP-based viability assays read luminescence as a measure of living cells.
As for `CC(C)c1ccccc1NC(=O)COC(=O)c1c2c(nc3ccccc13)CCN(Cc1ccccc1)C2`, the IC50 was 7.98 µM.
For the compound `O=C(NCC(=O)N(Cc1cccs1)C(C(=O)NC1CCCCC1)c1ccco1)c1cccs1` (configuration not stated), the IC50 is 17 µM (inactive).
As to `CCC(CC)C(=O)Nc1cc(C)c2c(=O)oc3ccccc3c2n1`, the IC50 is 36.4 µM (inactive).
`COC(=O)c1[nH]c2ccccc2c1NC(=O)CNC1CCCCC1`: the IC50 was 13.5 µM (inactive).
Regarding `Nc1c(C(=O)N/N=C/c2cccnc2)oc2nc(-c3ccccc3)cc(-c3ccco3)c12`, the IC50 was 3.52 µM.
The result for `COc1ccc(C(=O)COC(=O)Cn2[nH]c(=O)c3ccccc3c2=O)c(OC)c1` reads 52.7 µM (inactive); that for `COc1cc2nc(Nc3ccc(F)cc3)nc(N)c2cc1OC`, > 79 µM (inactive); that for `Cn1c(C(=O)NCCc2ccsc2)cc2c(=O)n(C)c3ccccc3c21`, 11.3 µM (inactive).
Consider `COc1ccc(CC(=O)N(Cc2ccccc2)c2ccccc2)cc1S(=O)(=O)N1CCOCC1`, for which the IC50 was 8.92 µM.
As for `COc1ccc(CCNC(=O)C(=O)NCC2CCCN2S(=O)(=O)c2ccccc2)cc1OC` (configuration not stated), the IC50 is 15.4 µM (inactive).
`CC(=O)Nc1ccc(Nc2nc(-c3sc(NC(C)=O)nc3C)cs2)cc1`: the IC50 is 18.8 µM (inactive).
Turning to `COc1cc(/C=N/NC(=O)NC23CC4CC(CC(C4)C2)C3)ccc1OCC(N)=O`, the IC50 was 7.76 µM.
Regarding `CCn1c(SCC(=O)Nc2ccccc2N2CCCCC2)nc2c1c(=O)n(C)c(=O)n2C`, the IC50 was 16.4 µM (inactive).
With `CC(=O)Nc1cc(-c2cccc(NS(C)(=O)=O)c2)cn2c(-c3cccc(C(C)=O)c3)cnc12`, the IC50 was 16.2 µM (inactive).
In the case of `CC(=O)c1ccc(N2CCN(C(=O)c3cc(-c4cccnc4)nc4ccc(Br)cc34)CC2)cc1`, the IC50 is 15.7 µM (inactive).
In the case of `CC(=O)c1ccc(-c2cnc3c(NC=O)cc(-c4ccc(C(=O)NC5CC5)cc4)cn23)cc1`, the IC50 is 6.57 µM.
As to `NC(=O)c1oc2ccccc2c1NC(=O)c1ccco1`, the IC50 was 32.2 µM (inactive).
In the case of `O=C(N/N=C/c1ccc2c(c1)OCO2)c1ccc(NC(=O)c2ccccc2Cl)cc1` it was 14.8 µM (inactive); in that of `COc1cc(-c2cc(NC=O)c3ncc(-c4ccccc4)n3c2)cc(OC)c1OC`, > 79 µM (inactive); in that of `CC(C)(C)NC(=O)c1cc(NC(=O)c2cccs2)cc(NC(=O)c2cccs2)c1`, 15.7 µM (inactive).
`COc1ccc(COc2cc(-c3cccc(OC)c3)nc3ccc(NC(=O)c4cccnc4)cc23)cc1`: the IC50 is 3.51 µM.
For `Cn1c(=O)[nH]c(=O)c2c1nc(Br)n2CC(O)COc1ccc(Cl)cc1` (configuration not stated), the IC50 is 22.8 µM (inactive).
Regarding `CCOC(=O)C1=C(C)NC(C)=C(C(=O)OCC)C1C(=O)OCC(=O)NC1CCCCC1`, the IC50 was 7.05 µM.
Turning to `CC(=O)Nc1cc(-c2ccccc2)cn2c(-c3cccc(C(C)=O)c3)cnc12`, the IC50 was 16 µM (inactive).
In the case of `COc1ccc(-n2c(/C=C/c3ccc(O)cc3)nc3ccccc3c2=O)cc1` it was 18.5 µM (inactive); in that of `COc1ccnc(Oc2ccccc2)c1C(=O)N/C=N/OCc1ccc(F)cc1Cl`, 8.39 µM; in that of `COc1ccc(NC(=O)c2cc(-c3ccccn3)nc3ccccc23)cc1S(=O)(=O)N(C)C`, 5.87 µM.
For the compound `O=C(NCCN1CCOCC1)c1cnn2c(-c3ccccc3)cc(-c3ccccc3)nc12`, the IC50 was 30.8 µM (inactive).
For `CCCn1nc(C(=O)Nc2nc(-c3ccccn3)cs2)c2ccccc2c1=O`, the IC50 is 9.03 µM.
The result for `COc1cccc(-c2cnc3c(NC=O)cc(-c4cc(OC)c(OC)c(OC)c4)cn23)c1` reads 14.2 µM (inactive).
In the case of `CCOC(=O)c1ccc(-c2ccc3ncnc(NCc4csc(C)n4)c3c2)o1` it was > 79 µM (inactive); in that of `CCOc1ccccc1NC(=O)c1oc2ccccc2c1NC(=O)C1CCCO1` (configuration not stated), 12.6 µM (inactive).
Take `Cc1nc2c(c(=O)n1CCC1=CCCCC1)c1nc3ccccc3nc1n2/N=C/c1ccccc1`: the IC50 is 15.1 µM (inactive).
In the case of `C=CCOC(=O)C1=C[C@H](c2cn(C(C)=O)c3ccccc23)C[C@H](OCc2ccc(CO)cc2)O1`, the IC50 was 21.5 µM (inactive).
Regarding `CC(C)CC(C(=O)NC1CCCCC1)N(Cc1cccs1)C(=O)c1snc(C(N)=O)c1N` (configuration not stated), the IC50 is 29.3 µM (inactive).
For `CC(C)(C)OC(=O)C[C@@H]1C/C=C\C[C@@H](CC(=O)N[C@H](CO)Cc2ccccc2)C(=O)NC[C@@H](c2ccccc2)OC1=O`, the IC50 was 64 µM (inactive).
In the case of `COc1ccc(CCNc2nc(-c3cccnc3)nc3ccccc23)cc1OC`, the IC50 is 8.24 µM.
For the compound `COCCN1Cc2cccc(C(=O)Nc3cccc(-c4nc5ccccc5[nH]4)c3)c2C1=O`, the IC50 is 3.71 µM.
With `COc1ccc(Cl)cc1NC(=O)CCS(=O)(=O)c1cc2c(cc1C)NC(=O)CO2`, the IC50 was 26 µM (inactive).
Turning to `Cc1nc(N2CCN(c3ccccn3)CC2)c2c(C)c(C(=O)Nc3ccc(F)cc3)sc2n1`, the IC50 is 14.9 µM (inactive).
The result for `COc1cc(/C=C/c2nc3ccccc3c(=O)n2-c2ccccc2O)ccc1O` reads 27.5 µM (inactive).
`COc1cc(NC(=O)c2cc3c(C)nc4ccccc4c3o2)cc(OC)c1OC`: the IC50 is 11.2 µM (inactive).
As to `COc1ccc(-c2cc3nc(-c4ccccc4)cc(N4CCN(C(=O)c5ccoc5)CC4)n3n2)cc1`, the IC50 was 7.21 µM.
`O=C(Nc1ccc2c(c1)OCO2)c1cnn2c(C(F)(F)F)cc(-c3ccco3)nc12`: the IC50 was > 79 µM (inactive).
In the case of `CC(=O)Nc1cc(-c2ccc(C(=O)NC3CC3)cc2)cn2c(-c3cccc(C(C)=O)c3)cnc12`, the IC50 was 23.3 µM (inactive).
`Nc1nonc1-n1nnc(C(=O)N/N=C/c2ccccn2)c1CNc1ccccc1`: the IC50 is 41.4 µM (inactive).
The result for `COc1ccccc1NC(=O)COc1ccc(C(=O)OCC(=O)NC(C)(C)C)cc1OC` reads 23.9 µM (inactive).
`COC(=O)c1cc2ccccn2c2c(C(=O)OC)c(C(=O)OC)cc1-2`: the IC50 was 5.26 µM.
In the case of `Cc1ccccc1NP(=O)(Oc1ccccc1F)Oc1ccccc1F` it was > 79 µM (inactive); in that of `O=C(NCCc1ccccc1Cl)c1ccc2nc3ccccc3c(=O)n2c1`, 28.7 µM (inactive); in that of `CN(C)S(=O)(=O)n1cc(/C=C(\NC(=O)c2ccccc2F)C(=O)NCCN2CCOCC2)c2ccccc21`, > 79 µM (inactive).
`O=CNc1cc(-c2ccc(C(=O)NC3CC3)cc2)cn2c(-c3ccccc3)cnc12`: the IC50 is 16.1 µM (inactive).
With `CCOC(=O)C1=C(C)Nc2ccccc2N=C1NC(=O)c1oc2ccccc2c1COC`, the IC50 was 6.98 µM.
Turning to `COCCn1cnc2c(c1=O)c1nc3ccccc3nc1n2/N=C/c1cccc(OC)c1`, the IC50 was > 79 µM (inactive).
In the case of `CCN1C(=O)/C(=C/c2nc3ccccc3c(=O)[nH]2)c2ccccc21`, the IC50 is 27.9 µM (inactive).
In the case of `CCN(CC)C(=O)c1ccc(-c2nnc(Nc3ccc(O)cc3)c3ccccc23)cc1` it was 44.2 µM (inactive); in that of `Cc1nc(N2CCN(c3ccccn3)CC2)c2c(C)c(C(=O)Nc3ccccc3F)sc2n1`, 16.4 µM (inactive).
As for `Cc1ccccc1N(C(=O)c1snc(C(N)=O)c1N)C(C(=O)NCc1ccccc1)c1ccc(O)cc1` (configuration not stated), the IC50 was 18 µM (inactive).
As to `c1cncc(-c2nc(NCC3COc4ccccc4O3)c3ccccc3n2)c1` (configuration not stated), the IC50 was > 79 µM (inactive).
The result for `COc1ccc2[nH]c(=O)c(CN(CC3CCCO3)S(=O)(=O)c3ccccc3F)cc2c1` (configuration not stated) reads 19.2 µM (inactive); that for `COc1cc(NC(=O)c2c(OC)cccc2OC)ccc1NC(=O)c1cc2ccccc2o1`, 13.4 µM (inactive); that for `COc1cccc(-c2nn(-c3ccccc3)cc2C(=O)Nc2nccs2)c1`, 16.3 µM (inactive).
In the case of `O=C1NC(Cc2ccc(O)cc2)c2nc3ccc(F)cc3c(=O)n2-c2cc3ccccc3cc21` (configuration not stated) it was 11.1 µM (inactive); in that of `Cc1ccc2[nH]c(=O)c(CN(Cc3ccco3)S(=O)(=O)c3c(C)ccc4nsnc34)cc2c1`, 45.3 µM (inactive); in that of `CCOC(=O)C1CCN(c2cc3c(cc2NC(=O)c2ccccc2)n(C)c(=O)n3C)CC1`, 10 µM.
The result for `COc1cc(/C=N\NC(=O)c2cccnc2)ccc1OC(=O)c1ccccc1Cl` reads > 79 µM (inactive); that for `COc1cc(C(=O)Nc2cccc(-c3nnc(-c4ccco4)o3)c2)ccc1OC(C)=O`, 9.42 µM.
In the case of `CC(=O)c1cccc(-c2cnc3c(NC=O)cc(-c4cccc(C(=O)N(C)C)c4)cn23)c1`, the IC50 is 39.7 µM (inactive).
For `CCOC(=O)c1ccc(NC(=O)c2nc[nH]c2C(=O)NCCCCCNC(=O)OC(C)(C)C)cc1`, the IC50 was 6.6 µM.
In the case of `COc1cc(C(=O)Nc2ccc(NC(=O)c3ccco3)nc2)cc(OC)c1OC` it was 38.5 µM (inactive).
In the case of `CCC(Oc1ccccc1)C(=O)Nc1ccccc1C(=O)N1CCCCC1` (configuration not stated) it was 36.4 µM (inactive); in that of `O=C(N/N=C/c1ccccn1)c1[nH]c2ccc([N+](=O)[O-])cc2c1-c1ccccc1`, > 79 µM (inactive); in that of `COc1cc(OC)c(-c2nn3c(-c4ccco4)nnc3s2)cc1OC`, 9.15 µM.
In the case of `COc1cc(-c2cc(NC(C)=O)c3ncc(-c4cc(OC)c(OC)c(OC)c4)n3c2)cc(OC)c1OC`, the IC50 is 9.01 µM.
As to `CC(=O)Nc1cccc(NC(=O)c2cc(-c3cccnc3)nc3ccc(Br)cc23)c1`, the IC50 was > 79 µM (inactive).
In the case of `c1ccc(-c2nc(-n3ccnc3)nc(-n3ccnc3)n2)cc1` it was 9.07 µM; in that of `NC(=O)c1nsc(C(=O)N(c2ccccc2)C(C(=O)NCc2ccc(F)cc2)c2ccc(O)cc2)c1N` (configuration not stated), 9.29 µM.
The result for `CCOc1cc(/C=C(\C#N)C(=O)Nc2ccc(S(N)(=O)=O)cc2)ccc1OCCN1CCOCC1` reads 9.62 µM.
In the case of `O=C(Cn1nc(C(=O)O)c2ccccc2c1=O)c1c[nH]c2ccccc12` it was 40.1 µM (inactive); in that of `Cc1ccc(-c2csc(N3CCC[C@@H]3C(=O)NCCn3c(-c4ccncc4)nc4ccccc43)n2)cc1`, 8.85 µM; in that of `CCOc1ccc(CCNC(=O)c2cc3c(C)nccc3[nH]c2=O)cc1OCC`, 8.64 µM.
Consider `Clc1ccccc1-c1nc(N/N=C/c2cccnc2)c2ccccc2n1`, for which the IC50 is 18.6 µM (inactive).

The term IC50 denotes the concentration that inhibits the measured activity by half.
